Test results as given in patent US12370167B2, “Blood-brain barrier permeability regulator and use thereof” (ZHEJIANG UNIVERSITY, priority 2019, dated 2025).

Legend:
[1] = test system: U87 MG glioma cells; assay: Cytotoxicity on U87 MG glioma cells, tetrazolium blue colorimetric method; format: cell-based; conditions: paclitaxel 0.5 μg/mL, siRNA 100 nM, 48 hours
Description: FIG. 1: In vitro cell inhibition rate against U87 MG glioma cells of the Angiopep-2-modified glycolipid nano-delivery system. 200 μL suspensions of well-grown U87 MG glioma cells were inoculated into a 96-well plate at a density of 5×10^3/well. After adherent growth of the cells, an Angiopep-2-modified glycolipid nano-delivery system was added, with paclitaxel at a concentration of 0.5 μg/mL and the siRNA at a concentration of 100 nM. The untreated cells were used as a blank control. The cell growth inhibition rate was measure with a tetrazolium blue colorimetric method (n=3).
U87 MG glioma cells were used as the model cell to assess the growth inhibitory effect of the Angiopep-2-modified glycolipid nano-delivery system on tumor cells with a tetrazolium blue colorimetric method. The Angiopep-2-modified glycolipid nano-delivery system was obtained according to the procedures as described in the above sections of 1 and 2. 200 μL suspensions of well-grown U87 MG cells were inoculated into a 96-well plate at a density of 5×10^3/well, and were incubated at 37° C. and 5% CO2 until the cells adhere. The Angiopep-2-modified glycolipid nano-delivery system was added, with paclitaxel at a concentration of […] and the siRNA at a concentration of 100 nM. The untreated cells were used as a blank control. […] Absorbance at 570 nm was measured with a microplate reader. […]

[2] = test system: VEGF mRNA in U87 MG cells; assay: Down-regulation of tumor cell VEGF mRNA expression, qt-PCR; format: cell-based; conditions: paclitaxel 0.5 μg/mL, siRNA 100 nM, 48 hours, ΔΔCt method, n=3
Description: FIG. 2: In vitro down-regulation of expression of U87 MG cell VEGF mRNA by the Angiopep-2-modified glycolipid nano-delivery system. 2 mL suspensions of well-grown U87 MG glioma cells were inoculated into a 6-well plate at a density of 4×10^5/well. After adherent growth of the cells, an Angiopep-2-modified glycolipid nano-delivery system was added, with paclitaxel at a concentration of 0.5 μg/mL and the siRNA at a concentration of 100 nM. The incubation was carried out for 48 hours. An untreated group was used as the blank control. The RNA in the cells was extracted with TRIzol. The relative expression level of tumor cell VEGF mRNA was measure with qt-PCR and calculated with a ΔΔCt method (n=3).
The Angiopep-2-modified glycolipid nano-delivery system was obtained according to the procedures as described in the above sections of 1 and 2. 2.0 mL suspensions of well-grown U87 MG cells were inoculated into a 6-well plate at a density of 4×10^5/well, and were incubated at 37° C. and 5% CO2 until the cells adhere. The Angiopep-2-modified glycolipid nano-delivery system was added, with paclitaxel at a concentration of 0.5 μg/mL and the siRNA at a concentration of 100 nM. The incubation was carried out for 48 hours. The untreated cells were used as a blank control. Each of the group was repeated 3 times. The tumor cell VEGF expression level was measured with qt-PCR.

Compound | inhibition at 0.5 µg/mL ([1]; Homo sapiens, U-87 MG, n=3, read-out: cell inhibition rate) | expression level of VEGF mRNA (relative) [2] | cell inhibition rate ([1]; n=3)
CC(=O)O[C@H]1C(=O)[C@@]2(C)[C@H]([C@H](OC(=O)c3ccccc3)[C@]3(O)C[C@H](OC(=O)[C@H](O)[C@@H](NC(=O)c4ccccc4)c4ccccc4)C(C)=C1C3(C)C)[C@]1(OC(C)=O)CO[C@@H]1C[C@@H]2O [paclitaxel] | 18.7 ± 5.4% | 78.5% | 
siRNA: siRNA, sense strand 5′-GUCUAUCAGCGCAGCUACUTT-3′ (SEQ ID NO: 1), antisense strand 5′-AGUAGCUGCGCUGAUAGACTT-3′ (SEQ ID NO: 2) (sense GUCUAUCAGCGCAGCUACUNN; antisense AGUAGCUGCGCUGAUAGACNN; listed as RNA, chemistry not given here) |  | 92.9% | 5.5±0.5%
